What was measured:
[1] = biological target: T1, Atypical chemokine receptor 3 (Homo sapiens, UniProt P25106); experiment: Agonist activity at human CXCR7 receptor expressed in CHOK1 cell membranes assessed as increase in beta-arrestin recruitment incubated for 30 mins; assay type: cell-based, CHO-K1
[2] = biological target: T1, Atypical chemokine receptor 3; experiment: Displacement of [125I]-CXCL12 from human CXCR7 receptor expressed in CHOK1 cell membranes incubated for 2 hrs by radiolabeled ligand binding assay; set-up: species or system CHO-K1
[3] = biological target: C-X-C chemokine receptor type 4 (Homo sapiens, UniProt P61073); experiment: Displacement of [125I]-CXCL12 from human CXCR4 receptor expressed in Jurkat cells incubated for 2 hrs by radiolabeled ligand binding assay; assay type: cell-based
Chain of C-X-C chemokine receptor type 4 (P61073 whole entry): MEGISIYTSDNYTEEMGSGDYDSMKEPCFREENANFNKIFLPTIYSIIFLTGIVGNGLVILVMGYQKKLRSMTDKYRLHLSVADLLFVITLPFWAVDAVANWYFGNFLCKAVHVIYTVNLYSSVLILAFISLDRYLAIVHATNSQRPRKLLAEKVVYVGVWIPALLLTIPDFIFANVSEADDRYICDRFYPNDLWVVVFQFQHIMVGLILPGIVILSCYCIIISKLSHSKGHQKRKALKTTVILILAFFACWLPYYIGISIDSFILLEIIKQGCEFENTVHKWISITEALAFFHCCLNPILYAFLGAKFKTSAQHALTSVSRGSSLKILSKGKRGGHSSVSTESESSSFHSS

T1 sequence (P25106 whole entry): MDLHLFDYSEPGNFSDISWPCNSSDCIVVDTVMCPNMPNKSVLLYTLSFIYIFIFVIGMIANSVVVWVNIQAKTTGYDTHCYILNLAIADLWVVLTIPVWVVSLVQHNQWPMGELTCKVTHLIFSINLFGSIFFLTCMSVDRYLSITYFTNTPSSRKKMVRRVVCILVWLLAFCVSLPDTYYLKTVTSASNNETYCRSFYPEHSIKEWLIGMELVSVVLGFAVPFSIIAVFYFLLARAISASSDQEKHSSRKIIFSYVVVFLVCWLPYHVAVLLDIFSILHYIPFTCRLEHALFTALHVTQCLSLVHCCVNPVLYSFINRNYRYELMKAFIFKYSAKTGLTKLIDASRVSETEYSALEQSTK

Row | EC50 [1] | Ki ([2]; read-out: Ki) | Ki ([2]; read-out: pKi (converted)) | IC50 [3] | SMILES
1 | > 10 µM | 4.09 µM | 4.17 µM |  | NC(=O)C(c1ccccc1)(c1ccccc1)[C@@H]1CCN(CCOc2ccc(-c3nnco3)cc2)C1
2 | > 10 µM | 6.54 µM |  |  | NC(=O)C(c1ccccc1)(c1ccccc1)[C@@H]1CCN(CCOc2ccc(C3=NCCO3)cc2)C1
3 |  |  |  | > 15 µM | NC(=O)C(c1ccccc1)(c1ccccc1)[C@@H]1CCN(CCOc2ccc(-c3nccs3)cc2)C1
4 | > 10 µM | 11.8 µM |  |  | Cc1noc(-c2ccc(OCCN3CC[C@@H](C(C(N)=O)(c4ccccc4)c4ccccc4)C3)cc2)n1

— ChEMBL document CHEMBL4616715, “Discovery of Diphenylacetamides as CXCR7 Inhibitors with Novel β-Arrestin Antagonist Activity” (ACS Med Chem Lett, 2020)
